Counter-ions that a name gives are not always drawn.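 Results reflect a 48-hour exposure of cells in 96-well plates to compound at five concentrations. The concentration for 50% growth inhibition is given as GI50.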 The source made the active and inactive calls. No stated cut-off is given here; in the data, active = GI50 up to about 1.1 µM and inactive = higher.
Legend:
Experiment in all cases: NCI-60 cell line screen, 48 h
KM12 = test system: KM12
UACC-257 = test system: UACC-257
OVCAR-8 = test system: OVCAR-8
Malme-3M = test system: Malme-3M
SN12C = test system: SN12C
OVCAR-4 = test system: OVCAR-4
UACC-62 = test system: UACC-62
CCRF-CEM = test system: CCRF-CEM
HOP-92 = test system: HOP-92
ACHN = test system: ACHN
LOX IMVI = test system: LOX IMVI
HL-60 = test system: HL-60
SF-539 = test system: SF-539
NCI-H460 = test system: NCI-H460
HOP-18 = test system: HOP-18
UO-31 = test system: UO-31
OVCAR-3 = test system: OVCAR-3
DMS-114 = test system: DMS-114
NCI-H522 = test system: NCI-H522
SK-MEL-5 = test system: SK-MEL-5
SF-295 = test system: SF-295
SF-268 = test system: SF-268
LXFL 529 = test system: LXFL 529
U-251 = test system: U-251
DLD-1 = test system: DLD-1
HCC 2998 = test system: HCC 2998
A498 = test system: A498
NCI-H23 = test system: NCI-H23
MOLT-4 = test system: MOLT-4
K562 = test system: K562
SNB-78 = test system: SNB-78
SNB-75 = test system: SNB-75
NCI-H226 = test system: NCI-H226
SW-620 = test system: SW-620
KM-20L2 = test system: KM-20L2
RPMI-8226 = test system: RPMI-8226
M14 = test system: M14
HT-29 = test system: HT-29
SK-MEL-2 = test system: SK-MEL-2
IGROV-1 = test system: IGROV-1
SNB-19 = test system: SNB-19
CAKI-1 = test system: CAKI-1
A549 = test system: A549
XF498 = test system: XF498
OVCAR-5 = test system: OVCAR-5
RXF 631 = test system: RXF 631
SK-MEL-28 = test system: SK-MEL-28
SK-OV-3 = test system: SK-OV-3
M19-MEL = test system: M19-MEL
HCT-15 = test system: HCT-15
TK-10 = test system: TK-10
COLO 205 = test system: COLO 205
HOP-62 = test system: HOP-62
786-0 = test system: 786-0
EKVX = test system: EKVX
RXF 393 = test system: RXF 393
DMS-273 = test system: DMS-273
SR = test system: SR
HCT-116 = test system: HCT-116
PC-3 = test system: PC-3
Hs-578T = test system: Hs-578T
T47D = test system: T47D
NCI/ADR-RES = test system: NCI/ADR-RES
MDA-MB-231 = test system: MDA-MB-231
MDA-MB-435 = test system: MDA-MB-435
MCF7 = test system: MCF7

C[C@]12CCc3nonc3C1CC[C@@H]1C2CC[C@]2(C)C(=O)CCC12 (some centres undefined) was tested, and the GI50 (KM12) was 20.9 µM (inactive), the GI50 (UACC-257) was > 10 µM (inactive) and the GI50 (OVCAR-8) was 31.2 µM (inactive). The GI50 (Malme-3M) was 24.9 µM (inactive), the GI50 (SN12C) was 35.1 µM (inactive) and the GI50 (OVCAR-4) was > 100 µM (inactive). The GI50 (UACC-62) was 21.7 µM (inactive), the GI50 (CCRF-CEM) was 24.1 µM (inactive) and the GI50 (HOP-92) was 20 µM (inactive). The GI50 (ACHN) was 74 µM (inactive), the GI50 (LOX IMVI) was 21.5 µM (inactive) and the GI50 (HL-60) was 15.5 µM (inactive). For the same molecule, the GI50 (SF-539) was 20.9 µM (inactive), the GI50 (NCI-H460) was > 100 µM (inactive) and the GI50 (HOP-18) was > 100 µM (inactive). The GI50 (UO-31) was 20.6 µM (inactive), the GI50 (OVCAR-3) was 25.5 µM (inactive) and the GI50 (DMS-114) was 22.4 µM (inactive). For the same molecule, the GI50 (NCI-H522) was 19.8 µM (inactive), the GI50 (SK-MEL-5) was 17.5 µM (inactive) and the GI50 (SF-295) was 26.3 µM (inactive). For the same molecule, the GI50 (SF-268) was 39.4 µM (inactive), the GI50 (LXFL 529) was 35.9 µM (inactive) and the GI50 (U-251) was 48.6 µM (inactive). For the same molecule, the GI50 (DLD-1) was 50 µM (inactive), the GI50 (HCC 2998) was 26.5 µM (inactive) and the GI50 (A498) was 22.9 µM (inactive). The GI50 (NCI-H23) was 30.8 µM (inactive), the GI50 (MOLT-4) was 22.4 µM (inactive) and the GI50 (K562) was 33.7 µM (inactive). The GI50 (SNB-78) was 59.6 µM (inactive), the GI50 (SNB-75) was 28.8 µM (inactive) and the GI50 (NCI-H226) was 76.9 µM (inactive). For the same molecule, the GI50 (SW-620) was 40.1 µM (inactive), the GI50 (KM-20L2) was 26.5 µM (inactive) and the GI50 (RPMI-8226) was 17.5 µM (inactive). The GI50 (M14) was 64.9 µM (inactive), the GI50 (HT-29) was 17.2 µM (inactive) and the GI50 (SK-MEL-2) was 24.5 µM (inactive). For the same molecule, the GI50 (IGROV-1) was 67.1 µM (inactive), the GI50 (SNB-19) was 81.1 µM (inactive) and the GI50 (CAKI-1) was 14.8 µM (inactive). The GI50 (A549) was 25.8 µM (inactive), the GI50 (XF498) was 17.5 µM (inactive) and the GI50 (OVCAR-5) was > 100 µM (inactive). The GI50 (RXF 631) was 57.8 µM (inactive), the GI50 (SK-MEL-28) was > 10 µM (inactive) and the GI50 (SK-OV-3) was 33 µM (inactive). For the same molecule, the GI50 (M19-MEL) was 25.8 µM (inactive), the GI50 (HCT-15) was 31.2 µM and the GI50 (TK-10) was > 10 µM (inactive). For the same molecule, the GI50 (COLO 205) was 24.3 µM (inactive), the GI50 (HOP-62) was > 100 µM (inactive) and the GI50 (786-0) was > 100 µM (inactive). For the same molecule, the GI50 (EKVX) was 17.1 µM (inactive), the GI50 (RXF 393) was 35.2 µM (inactive) and the GI50 (DMS-273) was 20.7 µM (inactive).

In the case of CC(=O)O[C@H]1C=CC23OC(=O)[C@]1(C)[C@H]2[C@H](C(=O)O)C12CC(=O)[C@@](CO)(CC[C@H]13)C2, the GI50 (KM12) is reported as > 100 µM (inactive), the GI50 (UACC-257) is reported as > 100 µM (inactive) and the GI50 (OVCAR-8) is reported as > 100 µM (inactive). For the same molecule, the GI50 (SN12C) was > 100 µM (inactive), the GI50 (SR) was > 100 µM (inactive) and the GI50 (OVCAR-4) was > 100 µM (inactive). The GI50 (UACC-62) was 75.7 µM (inactive), the GI50 (CCRF-CEM) was > 100 µM (inactive) and the GI50 (HOP-92) was > 100 µM (inactive). The GI50 (ACHN) was > 100 µM (inactive), the GI50 (LOX IMVI) was > 100 µM (inactive) and the GI50 (HL-60) was > 100 µM (inactive). The GI50 (SF-539) was > 100 µM (inactive), the GI50 (NCI-H460) was > 100 µM (inactive) and the GI50 (HOP-18) was > 100 µM (inactive). For the same molecule, the GI50 (UO-31) was > 100 µM (inactive), the GI50 (OVCAR-3) was > 100 µM (inactive) and the GI50 (NCI-H522) was > 100 µM (inactive). For the same molecule, the GI50 (SK-MEL-5) was > 100 µM (inactive), the GI50 (SF-295) was > 100 µM (inactive) and the GI50 (SF-268) was > 100 µM (inactive). For the same molecule, the GI50 (LXFL 529) was > 100 µM (inactive), the GI50 (U-251) was > 100 µM (inactive) and the GI50 (DLD-1) was > 100 µM (inactive). The GI50 (HCC 2998) was > 100 µM (inactive), the GI50 (NCI-H23) was > 100 µM (inactive) and the GI50 (MOLT-4) was > 100 µM (inactive). For the same molecule, the GI50 (K562) was > 100 µM (inactive), the GI50 (SNB-78) was > 100 µM (inactive) and the GI50 (HCT-116) was > 100 µM (inactive). For the same molecule, the GI50 (NCI-H226) was > 100 µM (inactive), the GI50 (SW-620) was > 100 µM (inactive) and the GI50 (KM-20L2) was > 100 µM (inactive). For the same molecule, the GI50 (RPMI-8226) was > 100 µM (inactive), the GI50 (M14) was > 100 µM (inactive) and the GI50 (HT-29) was > 100 µM (inactive). The GI50 (SK-MEL-2) was > 100 µM (inactive), the GI50 (IGROV-1) was > 100 µM (inactive) and the GI50 (SNB-19) was > 100 µM (inactive). For the same molecule, the GI50 (CAKI-1) was > 100 µM (inactive), the GI50 (A549) was > 100 µM (inactive) and the GI50 (XF498) was > 100 µM (inactive). For the same molecule, the GI50 (OVCAR-5) was > 100 µM (inactive), the GI50 (RXF 631) was > 100 µM (inactive) and the GI50 (SK-MEL-28) was > 100 µM (inactive). For the same molecule, the GI50 (SK-OV-3) was > 100 µM (inactive), the GI50 (M19-MEL) was > 100 µM (inactive) and the GI50 (HCT-15) was over 100 µM. The GI50 (TK-10) was > 100 µM (inactive), the GI50 (COLO 205) was > 100 µM (inactive) and the GI50 (HOP-62) was > 100 µM (inactive). The GI50 (786-0) was > 100 µM (inactive), the GI50 (EKVX) was > 100 µM (inactive) and the GI50 (RXF 393) was > 100 µM (inactive). The GI50 (DMS-273) was > 100 µM (inactive).

In the case of CC[C@@]1(O)C(=O)OCc2c1cc1n(c2=O)Cc2cc3c(CN(C)C)c(O)ccc3nc2-1 [TOPOTECAN HYDROCHLORIDE], the GI50 (KM12) is reported as 0.518 µM (active), the GI50 (UACC-257) is reported as 0.0834 µM (active) and the GI50 (PC-3) is reported as 0.0771 µM (active). For the same molecule, the GI50 (Malme-3M) was 0.188 µM (active), the GI50 (SN12C) was 0.0214 µM (active) and the GI50 (OVCAR-4) was 0.412 µM (active). The GI50 (CCRF-CEM) was 0.0125 µM (active), the GI50 (HOP-92) was 0.0318 µM (active) and the GI50 (ACHN) was 0.0237 µM (active). For the same molecule, the GI50 (Hs-578T) was 1.1 µM (active), the GI50 (HL-60) was 0.0268 µM (active) and the GI50 (SF-539) was 0.0168 µM (active). For the same molecule, the GI50 (T47D) was 0.00571 µM (active), the GI50 (NCI-H460) was 0.0163 µM (active) and the GI50 (HOP-18) was 0.254 µM (active). The GI50 (OVCAR-3) was 0.24 µM (active), the GI50 (DMS-114) was 0.0187 µM (active) and the GI50 (NCI-H522) was 0.0306 µM (active). The GI50 (SK-MEL-5) was 0.0325 µM (active), the GI50 (SF-295) was 0.0148 µM (active) and the GI50 (SF-268) was 0.0147 µM (active). The GI50 (LXFL 529) was 2.29 µM (inactive), the GI50 (A498) was 0.11 µM (active) and the GI50 (NCI-H23) was 0.0217 µM (active). The GI50 (MOLT-4) was 0.0125 µM (active), the GI50 (K562) was 0.0592 µM (active) and the GI50 (SNB-78) was 4.71 µM (inactive). The GI50 (HCT-116) was 0.0408 µM (active), the GI50 (SNB-75) was 0.0215 µM (active) and the GI50 (NCI-H226) was 0.0225 µM (active). The GI50 (KM-20L2) was 0.146 µM (active), the GI50 (RPMI-8226) was 0.276 µM (active) and the GI50 (HT-29) was 0.132 µM (active). For the same molecule, the GI50 (IGROV-1) was 0.141 µM (active), the GI50 (SNB-19) was 0.0179 µM (active) and the GI50 (CAKI-1) was 0.015 µM (active). For the same molecule, the GI50 (NCI/ADR-RES) was 0.193 µM (active), the GI50 (A549) was 0.0475 µM (active) and the GI50 (MDA-MB-231) was 2.25 µM (inactive). For the same molecule, the GI50 (XF498) was 0.0387 µM (active), the GI50 (OVCAR-5) was 0.121 µM (active) and the GI50 (RXF 631) was 0.375 µM (active). The GI50 (MDA-MB-435) was 0.159 µM (active), the GI50 (SK-MEL-28) was 0.239 µM (active) and the GI50 (MCF7) was 0.0149 µM (active). For the same molecule, the GI50 (M19-MEL) was 0.0649 µM (active), the GI50 (HCT-15) was 0.395 µM and the GI50 (COLO 205) was 0.293 µM (active). For the same molecule, the GI50 (HOP-62) was 0.0125 µM (active), the GI50 (EKVX) was 0.333 µM (active) and the GI50 (RXF 393) was 0.0395 µM (active). For the same molecule, the GI50 (DMS-273) was 0.0191 µM (active).
